Laboratory results as given in ChEMBL document CHEMBL1201862, “PubChem BioAssay data set” (2004).
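Cultured in 96-well plates, cells were exposed to test compound for 48 hours across five concentrations. GI50 = concentration required for 50% inhibition of growth.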 Activity calls are given as the source filed them. No stated cut-off is given here; in the data, active = GI50 up to about 1.1 µM and inactive = higher.

Experiments:
Experiment in all cases: NCI-60 cell line screen, 48 h
A549 = tested on: A549
MDA-MB-231 = tested on: MDA-MB-231
CAKI-1 = tested on: CAKI-1
KM12 = tested on: KM12
U-251 = tested on: U-251
HT-29 = tested on: HT-29
UO-31 = tested on: UO-31
NCI-H23 = tested on: NCI-H23
MOLT-4 = tested on: MOLT-4
SNB-75 = tested on: SNB-75
SK-MEL-5 = tested on: SK-MEL-5
CCRF-CEM = tested on: CCRF-CEM
SW-620 = tested on: SW-620
EKVX = tested on: EKVX
BT-549 = tested on: BT-549
NCI-H460 = tested on: NCI-H460
HCT-116 = tested on: HCT-116
Malme-3M = tested on: Malme-3M
OVCAR-3 = tested on: OVCAR-3
HOP-92 = tested on: HOP-92

Row | Compound | GI50 (A549) | GI50 (MDA-MB-231) | GI50 (CAKI-1) | GI50 (KM12) | GI50 (U-251) | GI50 (HT-29) | GI50 (UO-31) | GI50 (NCI-H23) | GI50 (MOLT-4) | GI50 (SNB-75) | GI50 (SK-MEL-5) | GI50 (CCRF-CEM) | GI50 (SW-620) | GI50 (EKVX) | GI50 (BT-549) | GI50 (NCI-H460) | GI50 (HCT-116) | GI50 (Malme-3M) | GI50 (OVCAR-3) | GI50 (HOP-92)
1 | CN(C)CCCn1c(Cc2ccccc2)nc2cc(C(F)(F)F)ccc21 | 14.7 µM (inactive) | 22.4 µM (inactive) | 17.7 µM (inactive) | 15.7 µM (inactive) | 20 µM (inactive) | 20.7 µM (inactive) | 1.91 µM (inactive) | 29.5 µM (inactive) | 19.8 µM (inactive) | 52.8 µM (inactive) | 17.3 µM (inactive) | 19.4 µM (inactive) | 26.1 µM (inactive) | 30.1 µM (inactive) | 29.2 µM (inactive) | 19.6 µM (inactive) | 18 µM (inactive) | 17.7 µM (inactive) | 27.9 µM (inactive) | 20 µM (inactive)
2 | O=C(O)c1ccc(C2SCc3nc4ccccc4n32)cc1 (stereo not given) | > 100 µM (inactive) | > 100 µM (inactive) | > 100 µM (inactive) | > 100 µM (inactive) | > 100 µM (inactive) | > 100 µM (inactive) | > 100 µM (inactive) | > 100 µM (inactive) | > 100 µM (inactive) | > 100 µM (inactive) | > 100 µM (inactive) | > 100 µM (inactive) | > 100 µM (inactive) | > 100 µM (inactive) | > 100 µM (inactive) | > 100 µM (inactive) | > 100 µM (inactive) | > 100 µM (inactive) | > 100 µM (inactive) | > 100 µM (inactive)
3 | C=CC(C)(C)n1cc(C2=C(O)C(=O)C(c3cn(C(C)(C)C=C)c4ccccc34)=C(O)C2=O)c2ccccc21 | 3.68 µM (inactive) | 3.71 µM (inactive) | 2.34 µM (inactive) | 3.37 µM (inactive) | 2.35 µM (inactive) | 3.74 µM (inactive) | 1.67 µM (inactive) | 2.32 µM (inactive) | 4.07 µM (inactive) | 2.36 µM (inactive) | 2.08 µM (inactive) | 5.25 µM (inactive) | 10.3 µM (inactive) | 2.93 µM (inactive) | 1.01 µM (active) | 2.84 µM (inactive) | 3.27 µM (inactive) | 2.54 µM (inactive) | 1.96 µM (inactive) | 3.34 µM (inactive)
4 | O=C1CSC(c2ccc(Cl)cc2)N1c1ccc(-n2c(-c3ccccc3)nc3ccccc3c2=O)cc1 (stereo not given) | 60.8 µM (inactive) | 33.2 µM (inactive) | > 100 µM (inactive) | 24.4 µM (inactive) | 88.5 µM (inactive) | 84.7 µM (inactive) | 5.48 µM (inactive) | > 100 µM (inactive) | 21.2 µM (inactive) | 7.64 µM (inactive) | 54.7 µM (inactive) | 45.7 µM (inactive) | 76 µM (inactive) | > 100 µM (inactive) | > 100 µM (inactive) | 36.5 µM (inactive) | 34.3 µM (inactive) | 48.9 µM (inactive) | > 100 µM (inactive) | 10.3 µM (inactive)
5 | Cn1c2ccccc2c(=NNc2ccc(C(=O)O)cc2)c2ccccc21 | 14.4 µM (inactive) | 19.8 µM (inactive) | 21.6 µM (inactive) | 15.7 µM (inactive) | 11.1 µM (inactive) | 13.1 µM (inactive) | 15.1 µM (inactive) | 21.1 µM (inactive) | 11.3 µM (inactive) | 19.8 µM (inactive) | 17.6 µM (inactive) | 15.2 µM (inactive) | 16.1 µM (inactive) | 9.25 µM (inactive) | 21.6 µM (inactive) | 16.1 µM (inactive) | 7.5 µM (inactive) | 21.1 µM (inactive) | 16.5 µM (inactive) | 20.5 µM (inactive)
6 | CC[C@@]1(O)C(=O)OCc2c1cc1n(c2=O)Cc2c-1nc1ccccc1c2/C=N\NC(=O)CN | 0.687 µM (active) | 23 µM (inactive) | 0.131 µM (active) | 6.14 µM (inactive) | 0.135 µM (active) | 1.68 µM (inactive) | 0.33 µM (active) | 0.0676 µM (active) | < 0.0316 µM (active) | 0.133 µM (active) | 0.252 µM (active) | < 0.0163 µM (active) | 0.315 µM (active) | 12 µM (inactive) | 0.627 µM (active) | 0.042 µM (active) | 0.419 µM (active) | 2.76 µM (inactive) | 6.9 µM (inactive) | 1.15 µM (inactive)
7 | O=C1CN(C(=O)C2CCCN2C(=O)C2CCCN2)C(=O)CN1 (stereo not given) | > 100 µM (inactive) | > 100 µM (inactive) | > 100 µM (inactive) | > 100 µM (inactive) | > 100 µM (inactive) | > 100 µM (inactive) | > 100 µM (inactive) | > 100 µM (inactive) | > 100 µM (inactive) | > 100 µM (inactive) | > 100 µM (inactive) | > 100 µM (inactive) | > 100 µM (inactive) | > 100 µM (inactive) | > 100 µM (inactive) | > 100 µM (inactive) | > 100 µM (inactive) | > 100 µM (inactive) | > 100 µM (inactive) | > 100 µM (inactive)
8 | CC(=O)c1ccc2c(c1)N(CCCN1CCN(CCO)CC1)c1ccccc1C2 | 17.9 µM (inactive) | 13.2 µM (inactive) | 13.6 µM (inactive) | 15.5 µM (inactive) | 15.8 µM (inactive) | 10 µM (inactive) | 23.8 µM (inactive) | 15.8 µM (inactive) | 18.4 µM (inactive) | 16.6 µM (inactive) | 12.2 µM (inactive) | 11.7 µM (inactive) | 14.5 µM (inactive) | 17.9 µM (inactive) | 14.7 µM (inactive) | 15.8 µM (inactive) | 16.3 µM (inactive) | 18.2 µM (inactive) | 15.5 µM (inactive) | 12.9 µM (inactive)
9 | CC(C)OC(=O)NNc1cc(Cl)ccc1Cl | 64 µM (inactive) | > 100 µM (inactive) | 79.6 µM (inactive) | 65.3 µM (inactive) | > 100 µM (inactive) | > 100 µM (inactive) | > 100 µM (inactive) | > 100 µM (inactive) | 0.0611 µM (active) | 58.3 µM (inactive) | 39.4 µM (inactive) | 59.7 µM (inactive) | > 100 µM (inactive) | 30.8 µM (inactive) | 64.3 µM (inactive) | 80.7 µM (inactive) | 73.3 µM (inactive) | 35.6 µM (inactive) | > 100 µM (inactive) | 34.8 µM (inactive)
10 | O=C1C2C(c3ccccc3)NC(c3ccccc3)C1C(c1ccccc1)NC2c1ccccc1 (stereo not given) | > 100 µM (inactive) | > 100 µM (inactive) | > 100 µM (inactive) | > 100 µM (inactive) | > 100 µM (inactive) | > 100 µM (inactive) | > 100 µM (inactive) | > 100 µM (inactive) | > 100 µM (inactive) | > 100 µM (inactive) | > 100 µM (inactive) | > 100 µM (inactive) | > 100 µM (inactive) | > 100 µM (inactive) | > 100 µM (inactive) | > 100 µM (inactive) | > 100 µM (inactive) | > 100 µM (inactive) | > 100 µM (inactive) | > 100 µM (inactive)
11 | O=C(NC1(c2cc3ccccc3s2)CCCCC1)C1CCC1 | > 100 µM (inactive) | 69.5 µM (inactive) | > 100 µM (inactive) | > 100 µM (inactive) | > 100 µM (inactive) | > 100 µM (inactive) | > 100 µM (inactive) | > 100 µM (inactive) | > 100 µM (inactive) | 46.7 µM (inactive) | > 100 µM (inactive) | > 100 µM (inactive) | > 100 µM (inactive) | > 100 µM (inactive) | > 100 µM (inactive) | > 100 µM (inactive) | > 100 µM (inactive) | > 100 µM (inactive) | > 100 µM (inactive) | > 100 µM (inactive)
12 | Cc1nn(-c2ccccn2)c2c1C(SC#N)=C(C=O)CC2 | 14.8 µM (inactive) | 18 µM (inactive) | 5.64 µM (inactive) | 16.7 µM (inactive) | 15.5 µM (inactive) | 16.1 µM (inactive) | 14.6 µM (inactive) | 16.4 µM (inactive) | 2.57 µM (inactive) | 15.3 µM (inactive) | 15 µM (inactive) | 2.12 µM (inactive) | 13.7 µM (inactive) | 16.9 µM (inactive) | 18.5 µM (inactive) | 15.9 µM (inactive) | 16 µM (inactive) | 18.3 µM (inactive) | 12.3 µM (inactive) | 16.5 µM (inactive)
13 | C/C(=N\NC(=S)N1CCCCCC1)c1ccccn1 | 0.0271 µM (active) | 0.0249 µM (active) | 0.0162 µM (active) | 0.0258 µM (active) | 0.00522 µM (active) | < 0.001 µM (active) | 0.543 µM (active) | 0.00897 µM (active) | 0.00676 µM (active) | 0.0692 µM (active) | 0.00805 µM (active) | 0.00383 µM (active) | 0.0148 µM (active) | 0.0641 µM (active) | 0.17 µM (active) | 0.0164 µM (active) | 0.00207 µM (active) | 0.0316 µM (active) | < 0.001 µM (active) | 0.01 µM (active)
14 | CC(C)C(C/C=C1\CC(CO)(COC(=O)C2CCCCC2)OC1=O)C(C)C (stereo not given) | 16.8 µM (inactive) | 16.8 µM (inactive) | 18.7 µM (inactive) | 18.4 µM (inactive) | 19 µM (inactive) | 30.6 µM (inactive) | 17.4 µM (inactive) | 20.6 µM (inactive) | 6.87 µM (inactive) | 12.9 µM (inactive) | 31.6 µM (inactive) | 16.9 µM (inactive) | 21.3 µM (inactive) | 19 µM (inactive) | 23.7 µM (inactive) | 24.4 µM (inactive) | 19.2 µM (inactive) | 16.2 µM (inactive) | 20 µM (inactive) | 16.9 µM (inactive)
